{"source": "patent US5886165A", "about": "“Mixed backbone antisense oligonucleotides containing 2'-5'-ribonucleotide- and 3'-5'-deoxyribonucleotides segments” (Hybridon, Inc., priority 1996, dated 1999)", "key": {"S1 nuclease": {"molecular_target": "T1, S1 nuclease (Aspergillus oryzae, UniProt P24021)", "T1 construct": "purchased Gibco/BRL", "T1 sequence (P24021 21-287)": "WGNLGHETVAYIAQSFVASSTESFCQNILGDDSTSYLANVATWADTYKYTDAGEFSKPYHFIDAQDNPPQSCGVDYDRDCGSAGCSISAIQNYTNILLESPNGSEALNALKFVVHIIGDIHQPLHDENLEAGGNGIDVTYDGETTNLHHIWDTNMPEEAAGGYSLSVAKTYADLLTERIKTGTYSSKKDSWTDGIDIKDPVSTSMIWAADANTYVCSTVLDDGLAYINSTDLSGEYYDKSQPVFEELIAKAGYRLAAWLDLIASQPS", "test": "S1 nuclease assay", "format": "in vitro ADME", "settings": "1.4 U, 37° C., pH 5.0", "procedure": "(§1) For snake venom phosphodiesterase assay, labeled oligonucleotide with cold oligonucleotide in a buffer (10 mM Tris, pH 8.0, 100 mM sodium chloride, and 10 mM magnesium chloride) was incubated with 0.01 U of snake venom phosphodiesterase (Boehringer-Mannheim, Indianapolis, Ind.) at 21° C. (final volume 40 μl). Aliquots were removed at different time intervals for electrophoretic gel analysis. For S1 nuclease assay, reactions were carried out as above but in […] sodium acetate, pH 5.0, 10 mM zinc acetate buffer and with 1.4 U of S1 nuclease (Gibco/BRL) incubated at 37° C. in a final volume of 50 μl. Aliquots were removed at different time intervals for electrophoretic gel analysis. Nuclease reactions were stopped by adding 5 μl of formamide gel loading buffer to each sample and heating at 90° C. for 5 min. All the samples were then run by 20% PAGE (7M urea) and visualized by autoradiography."}, "[1]": {"tested_on": "RNA target strand SEQ ID NO 9 (25 base sequence from the initiation codon region of the HIV-1 gag mRNA)", "test": "Thermal melting study, duplex with RNA target strand", "format": "binding", "procedure": "(§2) Thermal denaturation studies were carried out by mixing MBOs with the DNA or RNA target strands in equimolar ratios in 10 mM disodium hydrogen phosphate, pH 7.5±0.1, 100 mM sodium chloride buffer, heated to 95° C. for 10 min, and allowed to come to room temperature slowly before being stored at 4° C. overnight. The final total concentration of the oligonucleotide strands was 2.0 μM. Spectrophotometric measurements were performed at 260 nm using 1 cm path length quartz cuvettes at a heating rate of 0.5° C./min on a Perkin-Elmer (Norwalk, Conn.) Lambda 2 Specotrometer attached to a thermal controller and a personal computer. Melting temperatures (Tm) taken as the temperature of half-dissociation and were obtained from first derivative plots. Precision in Tm values estimated from variance in two or three repeated experiments was ±0.5° C."}, "[2]": {"tested_on": "snake venom phosphodiesterase", "test": "Snake venom phosphodiesterase assay", "format": "in vitro ADME", "settings": "0.01 U, 21° C.; compared with SEQ ID NO 7", "procedure": "as §1"}, "[3]": {"tested_on": "DNA target strand SEQ ID NO 10 (25 base sequence from the initiation codon region of the HIV-1 gag mRNA)", "test": "Thermal melting study, duplex with DNA target strand", "format": "binding", "procedure": "as §2"}, "Spleen cells (CD1 mouse)": {"tested_on": "Spleen cells (CD1 mouse)", "test": "In vitro cell proliferation assay ([3H]thymidine)", "format": "cell-based", "settings": "at 10 μg/ml, 48 hrs", "procedure": "Cell proliferation assays were carried out as described earlier (Zhao et al., Biochem. Pharmacol 51, 173-182 (1996)). Spleen cells (4-5 week old male CD1 mouse, 20-22 gm, Charles River, Wilmington, Mass.) suspensions were prepared and plated in 96-well dishes at a density of 10^6 cells/ml in a final volume of 100 μl. The cells were incubated at 37° C. after adding 10 μl of oligonucleotides. After 44 hrs incubation, 1 μCi [3H]thymidine (Amersham, Arlington Heights, Ill.) was added and the cells were pulse-labeled for another 4 hrs. The cells were harvested by an automatic cell harvester and the filters were counted by a scintillation counter. All experiments were carried out in triplicate."}, "[4]": {"test": "Stability in DMEM cell culture medium containing 10% fetal calf serum", "format": "in vitro ADME", "settings": "DMEM with 10% non-heat-inactivated fetal calf serum, 37° C.", "procedure": "Oligonucleotides were labeled at the 5'-end with ^32 P using γ-^32 P-ATP (Amersham) and T4 polynucleotide kinase (Promega). Sambrook et al, Molecular Cloning, supra. Stability of the oligonucleotides in cell culture medium containing 10% fetal calf serum was tested by incubating a small amount of labeled oligonucleotide together with 100 ng of cold oligonucleotide in DMEM cell culture medium (Gibco/BRL, Grand Island, N.Y.) containing 10% non-heat-inactivated fetal calf serum (Gibco/BRL) at 37° C. in a final volume of 40 μl, and aliquots were removed at different times."}, "[5]": {"tested_on": "citrated normal human donor plasma", "test": "Clotting assay, activated partial thromboplastin time (aPTT)", "settings": "compared to saline control", "procedure": "The activated partial thromboplastin time (aPTT) was performed with citrated normal human donor plasma in duplicate on an Electra 1000C (Medical Laboratory Automation, Mount Vernon, N.Y.) according to recommended procedures using Actin FSL (Baxter Dade, Miami, Fla.) and 2.5 mM calcium to initiate clot formation, which was measured photometrically. Normal plasma aPTT values ranged from 27 to 39 sec. Data were calculated as 50% of prolongation as compared to the saline control."}}, "note": "[25] = 2'-5' internucleotide linkage (phosphodiester)"}
{"substance": "SEQ ID NO 1: Phosphodiester MBO with three 2'-5'-linkages at each of the 5'- and 3'-ends, complementary to HIV-1 gag mRNA (antisense CUCTCGCACCCATCTCTCTCCUUCT; linkages [25]3 o18 [25]3 (s phosphorothioate, o phosphodiester), sugars by position and methylation of C not given here)", "values": [{"measurement": "digestion by S1 nuclease (in words)", "setting": "S1 nuclease", "value": "quickly digested"}, {"measurement": "Tm RNA", "setting": "[1]; duplex with RNA SEQ ID NO 9, 10 mM disodium hydrogen phosphate pH 7.5, 100 mM NaCl, 2.0 μM total strands", "value": 67.8, "unit": "°C"}, {"measurement": "Tm lower than duplex of control oligonucleotide SEQ ID NO 7, RNA target", "setting": "[1]; vs SEQ ID NO 7, RNA SEQ ID NO 9", "value": "~2.7", "unit": "°C"}, {"measurement": "stability against snake venom phosphodiesterase (in words)", "setting": "[2]", "value": "slightly higher stability"}, {"measurement": "Tm DNA", "setting": "[3]; duplex with DNA SEQ ID NO 10, 10 mM disodium hydrogen phosphate pH 7.5, 100 mM NaCl, 2.0 μM total strands", "value": 60.6, "unit": "°C"}, {"measurement": "Tm lower than duplex of control oligonucleotide SEQ ID NO 7, DNA target", "setting": "[3]; vs SEQ ID NO 7, DNA SEQ ID NO 10", "value": "about 2.9 °C"}, {"measurement": "Stimulation Index (Lymphocyte Proliferation)", "setting": "Spleen cells (CD1 mouse)", "value": "0.67 ± 0.11"}, {"measurement": "stability in serum (in words)", "setting": "[4]", "value": "intact up to four hours"}, {"measurement": "50% Prolongation of Clotting (aPTT)", "setting": "[5]; human plasma", "value": "> 100.0", "unit": "µg/mL"}, {"measurement": "effect in coagulation assay (in words)", "setting": "[5]; up to 100 μg/ml dose", "value": "negligible effect"}]}
